Test results taken from patent US5472973A, “Fluorenyl derivatives as anti-inflammatory agents” (Scios Nova Inc., priority 1992, dated 1995).

How the values were obtained:
[1] = test system: oxazolone-induced ear edema; test: Inhibition of ear edema caused by oxazolone; type: in vivo, mouse (CF-1); conditions: given orally, mouse, 24 h; dose not given
Protocol: CF-1 mice, 25-30 g body weight, six animals per group were used. The mice were sensitized to the irritant two weeks prior to the test by dribbling 100 μL of a 3% solution of oxazolone in acetone onto the scrotum of the animal. Test compounds were administered orally at doses of 100 mg/kg and 300 mg/kg for 1 hour prior to oxazolone, intraperitoneally as follows: The test compound was dissolved in dimethyl sulfoxide and doses of 10 mg/kg, 30 mg/kg and 100 mg/kg were injected 15 minutes prior to irritant. The irritant, 3% oxazolone in acetone, was added to the surface of the ear, 5 μl added to the upper surface and 5 μl added to the lower surface. After twenty four hours, the thickness of the ear was measured to 0.01 mm by a micrometer with loose drag, positioned at the lateral-most edge of the mid-point of the pinna. Data were calculated as the inhibition of increased ear thickness compared to control animals' receiving only the irritant. In general, % inhibition of greater than 20% is statistically significant (p<0.05 or less, Student's t-test for unpaired data).

[2] = test system: plasma fibrinogen; test: Adjuvant arthritis, plasma fibrinogen inhibition in rats; type: in vivo, rat (male Sprague Dawley); conditions: po, rat; for ED (maximal inhibition) at 100 mg/kg: 0.3 to 100 mg/kg, read-out: AA (p.o.) Dose yielding max inhibition (100 mg/kg)
[3] = test system: inflammatory screens; test: Anti-inflammatory activity, general statements (oral activity, inflammatory screens); type: in vivo
Protocol: Such inflammatory agents typically include oxazolone, and the like. The reverse passive Arthus test offers another measure of the compound's utility in preventing an inflammatory response (Chang et al. Eur. J. Phar. 69:155-164 (1981)). Test compounds are typically administered intraperitoneally or orally. For intraperitoneal administration, the test compound can be given in dimethyl sulfoxide or in 0.5% methylcellulose 30 minutes prior to administration of the irritant. For oral administration, the test compound can be compounded into tablet or capsule form as well as dissolved in, for example, water or ethanol and swallowed prior to application of the irritant. Results can be expressed as the percent decrease in swelling in the compound-treated animals as compared to control animals that receive only the irritant.

[4] = test system: reverse passive Arthus reaction; test: Reverse Passive Arthus Reaction (RPA); type: in vivo, rat (male SD); conditions: ip, rat
Protocol: Male SD rats weighing between 200 and 300 g were used. Test compounds were dissolved in dimethyl sulfoxide and 1 ml/kg of this stock solution (100 mg/ml), on serial dilutions were injected intraperitoneally one hour before administration of the antigen or given orally. The animals were anesthetized inhalationally with isoflurane and then injected through the penile vein with 1 ml of a solution of 2.5 mg of Evan's blue dye and 5.0 mg of human serum albumin in 1 ml of saline. This treatment was followed immediately by intracutaneous injections of 0.075 ml of anti-human albumin diluted to contain 4.38 mg/ml of antibody at 2 sites opposite the midline back. Anesthesia was terminated and after three hours, the animals were sacrificed. The skin was removed and the blue stained areas cut out. The skin patches were soaked overnight in stoppered tubes containing 2 ml of 1N potassium hydroxide at 5° C. Then 9 ml of a mixture of five parts of a 1.2N phosphoric acid and thirteen parts of acetone were added to the tubes. The tube contents were agitated and centrifuged, and the absorbance measured at 620 nm. The data were calculated as inhibition of blueing by test compound compared to control animals receiving only antigen and antibody.

| Structure (SMILES) | inhibition of increased ear thickness (oxazolone) [1] | ED (maximal inhibition) at 100 mg/kg [2] | ED (maximal inhibition) ([2]; given orally, read-out: dose achieving maximum inhibition of plasma fibrinogen) | activity when taken orally [3] | ED50 [4] |
| --- | --- | --- | --- | --- | --- |
| O=C(Nc1ccc(C(=O)O)cc1)OCCC1c2ccccc2-c2ccccc21 [Example 7, N-[9H-(Fluorenyl-9-ethoxycarbonyl)]amino-4-benzoic acid] | 50% | 30 mg/kg | 3 mg/kg | exhibit activity even when taken orally | 70 mg/kg |
| Cc1ccc2c(c1)C(CCOC(=O)Nc1ccc(C(=O)O)cc1)c1cc(C)ccc1-2 [Example 8, N-[9H-(2,7-Dimethylfluorenyl-9-ethoxycarbonyl)]amino-4-benzoic acid] |  | 100 mg/kg |  | exhibit activity even when taken orally | 100 mg/kg |
| O=C(Nc1ccc(C(=O)O)cc1)OCCC1c2cc(Cl)ccc2-c2ccc(Cl)cc21 [Example 9] |  | 3 mg/kg |  | exhibit activity even when taken orally | 34 mg/kg |
| O=C(Nc1ccc(C(=O)O)cc1)OC1c2ccccc2-c2ccccc21 [N-(9H-fluorenyl-9-oxycarbonyl)-4-aminobenzoic acid] |  |  |  | exhibit activity even when taken orally |  |
| O=C(Nc1ccc(C(=O)NS(=O)(=O)c2ccccc2)cc1)OCCC1c2ccccc2-c2ccccc21 [N-{[9H-(fluorenyl-9-ethoxycarbonyl)]-4-amino-benzoyl}-benzenesulfonamide] |  |  |  | exhibit activity even when taken orally |  |
